The test system of assay [1] is VEGF production by B16M cells. As to the kind of experiment: Measurement of VEGF production by B16M cells in response to soluble ICAM-1 and H2O2 (ELISA). The format is cell-based, murine. The note with it: 10 μg/ml HC0303 30 min prior to 200 ng/ml sICAM-1, then DMEM or 10 μM H2O2 for 2 hours; FIG. 8; P<0.01. The method, then:
Cultured B16M cells were incubated for 30 min with 200 ng/ml soluble ICAM-1 prior to either basal medium (DMEM) or 10 μM H2O2. Some cells were pre-incubated with 1 μg/ml anti-murine LFA-1 monoclonal antibody or 10 μg/ml compound HC0303 for 30 min before ICAM-1 addition. After 2 hours, supernatants were collected, centrifuged at 1,000 g for 10 min and subjected to 0.22 μm filtration.
The addition of either 1 μg/ml anti-murine LFA-1 monoclonal antibody or 10 μg/ml compound HC0303 for 30 minutes prior to sICAM-1 abrogated induced VEGF production (FIG. 8). Data represent the mean ±SD of two separate experiments; differences in VEGF production in treated versus untreated cells (*) and ICAM-1/H2O2-treated cells were statistically significant (P<0.01) by ANOVA and Bonferroni's post-hoc test.

Another assay has as its system Co26-CC cells. Description: Hepatic metastasis assay (intrasplenic injection of Co26-CC cells). The format is in vivo, BALB/c mice. Conditions: Co26-CC cells preincubated with 10 μg/ml HC0303 for 30 min before intrasplenic injection; day 14; vs untreated cells; FIG. 9; P<0.01. The method, then:
Hepatic metastases were produced by the intrasplenic injection into anesthetized male BALB/c mice (6- to 8-weeks old) of 1.5×10^5 viable Co26-CC cells suspended in 0.1 ml Hanks' balanced salt solution. Some cells were incubated with 10 μg/ml compound HC0303 for 30 min prior to their inoculation. Mice were killed by cervical dislocation on the 14th day after the injection of cancer cells. An integrated image analysis system (Olympus Microimage 4.0 capture kit) connected to an Olympus BX51TF microscope was used to quantify the number of foci and their average diameters in serially-cut and hematoxylin/eosin stained hepatic tissue sections.
Densitometric analysis of digitalized microscopic images was used to distinguish metastatic tissue from normal hepatic tissue. Previously described stereological procedures were employed (cf. Vidal-Vanaclocha et al., Cancer Research, 1994, 54(10):2667-72) and the following parameters were calculated: the liver metastasis density, which was the number of metastases per 100 mm^3 of liver (based on the mean number of foci detected in fifteen 10×10 mm^2 sections per liver) and the liver metastasis volume (mean percentage of liver volume occupied by metastases).
In vitro effect of compound HC0303 on in vivo metastatic behavior of cancer cells was tested in Co26-CC cells. […] In addition, the percentage of liver volume occupied by metastases was assessed. […]

The test system of assay [2] is B16 melanoma (B16M) cell adhesion to VEGF-induced HSE cells mediated by LFA-1. As to the kind of experiment: B16M cell adhesion to VEGF-treated hepatic sinusoidal endothelial (HSE) cells in vitro. In kind it is cell-based, murine. Conditions: HSE pre-incubated with 10 μg/ml HC0303 30 min prior to 10 ng/ml rmVEGF for 8 hours; FIG. 5; P<0.001. The method, then: Time-dependent adhesion assays was carried out on a quantitative basis according to previous validated bioassays (Vidal-Vanaclocha et al., Cancer Research, 1994, 54(10):2667-72). For tumor cell pre-labelling, they were allowed to accumulate the non-fluorescent sterase substrate BCECF-AM and to hydrolyze it to its fluorescent product BCECF which becomes trapped inside living cells. To do this, 50 μg of BCECF-AM were diluted in dry DMSO (5 μl) and DME medium until […] (40 μg/ml).
Tumor cells (5×10^6) were incubated in BCECF-AM solution at 37° C. for 30 min. After gently washing, tumor cells were resuspended in fresh medium (DMEM without phenol red) at a concentration of 2×10^6 cells/ml.
Twenty-four hours post-plating, primary cultured hepatic sinusoidal endothelial (HSE) cells were also used for adhesion assay. To determine the basal autofluorescence per well, plates were read on a fluorometric microplate reader (Multiskan Ascent, Thermo Labsystems) using 485/22 nm excitation and the 530/25 nm emission filter. Then, 2×10^5 labeled tumor cells were added to each well of HSE cells and to collagen pre-coated control wells.
However, in order to determine the exact number of cells in each well, co-culture plates were read for a second time. Then, plates were incubated at 37° C. […]

Take `CC[C@H](C)C(OCc1ccccc1)[C@@H]1[C@H]([N+](=O)[O-])[C@H](c2ccccc2)N[C@]1(C)C(=O)NCCC(=O)O` (stereo partly drawn) [HC0303, 3-[(2S,3R,4S,5S)-3-[(2S)-1-(Benzyloxy)-2-methylbutyl]-2-methyl-4-nitro-5-phenylpyrrolidine-2-carboxamido]propanoic acid]: the “induced VEGF production (sICAM-1 / H2O2)” value in assay [1] is reported as “abrogated”. Moreover, in the assay on Co26-CC cells, the “liver metastasis density (number of foci/100 mm^3)” value is given as “almost abrogated” and the “liver metastasis volume (percentage of liver volume occupied by metastases)” value is “almost abrogated”. For the same molecule, the “B16M cell adhesion increase produced in response of VEGF” value in assay [2] is recorded as “abrogated”.

(Values after patent US7943660B2, “Inhibitors of the LFA-1/ICAM-1 interaction and uses thereof” (Dominion Pharmakine S.L., priority 2005, dated 2011).)
